# Laboratory results as given in patent US20240409880A1, “METHODS FOR INCREASING ALGAE PRODUCTIVITY USING HIGH SILICA CONCENTRATIONS” (Global Algae Technology, LLC, priority 2023, published 2024).
# Test system: Nitzschia inconspicua
# Assay: Cultivation of Nitzschia inconspicua in an open raceway pond at high silica loading, lipid content of harvested slurry
# Assay type: cell-based
# Protocol: Nitzschia inconspicua was cultivated at pH 9.6 with a silica loading of 10-11 mM in an open raceway pond for 20 days. Silica was added to the culture at a concentration of 1-3 mM each day to maintain the 10-11 mM silica loading as the algae grew and the batch volume increased. The silica loading was reduced to below 5 mM by diluting the culture without adding silica. The third day after reducing the silica loading, the loading was 2 mM. The algae slurry was harvested on the third day and analyzed for lipid content. The lipid content was 47% of the ash-free dry weight of the biomass. This is a substantial increase in lipid content compared to the typical 5-10% lipid content when the algae is grown in standard media with silica concentrations below 500 μM.
compound,measurement,setting,value
O=[Si]=O [silica],typical lipid content,algae grown in standard media with silica concentrations below 500 μM,5-10%
same,lipid content,"pH 9.6, silica loading 10-11 mM for 20 days, then reduced to below 5 mM, loading 2 mM at harvest on the third day",47 % of the ash-free dry weight of the biomass
